Entries after “also recorded” stand apart in the source; their conditions may differ.
Experiments:
[1] = system: mouse-derived myocyte lines (C2C12; ATCC); experiment: Mitochondrial production in differentiated myocytes (Mitotracker Green staining, Q-PCR of mitochondrial marker genes); type: cell-based; conditions: 20 pg/ml, 24 hours
Procedure: (§1) Ginseng seed-derived ginsenosides were administered to mouse-derived myocyte lines (C2C12; ATCC) to observe changes in mitochondrial amount and fatty acid oxidation in myocytes.
(§2) The mouse-derived myocyte lines (C2C12; ATCC) were cultured using Dulbecco's Modified Eagle's Medium (DMEM; Sigma) containing […] fetal bovine serum (Hyclone) and 1% penicillin/streptomycin (Sigma). The cells were induced to be 100% confluent for differentiation into myocytes and then differentiated using a DMEM medium containing 2% horse serum (Hyclone) and 1% penicillin/streptomycin (Sigma). Medium was changed daily, with differentiation for a total of a week.
(§3) After treating the differentiated myocytes with the novel ginsenoside GS #10 of one embodiment of the present disclosure and the other ginsenosides GS #01-GS #06 isolated from the existing ginseng seed extract at a concentration of 20 pg/ml for 24 hours, respectively, the amount of mitochondria in myocytes was observed by staining with a Mitotracker Green™ (Invitrogen) reagent. mRNA expression levels of mitochondrial marker genes were measured using Q-PCR. As positive controls, a combination of GW501516 and Metformin (GW/Met; treated at 10 μM each), which are candidates for exercise mimetics and are known to improve exercise ability by activating PPARδ (Peroxisome proliferator-activated receptor delta) and AMPK (AMP-activated protein kinase), respectively, was used. The mitochondrial number measured as a result of the test is shown in FIG. 11, and the mitochondrial marker gene expression levels are shown in FIGS. 12 to 14.
(§4) The experiments were performed in the same manner as in Test Examples 1 and 2 above, respectively.
(§5) First, the C2C12 myocytes differentiated in the same manner as in Test Example 1 above were treated with ginsenosides Rg1, Rg3, and Rb1, which are comparative examples of the present disclosure, and the novel ginsenoside GS #10 of one embodiment of the present disclosure, respectively, and then mitochondria and marker genes were observed (FIGS. 21 to 25). In addition, in the same manner as in Test Example 2 above, after administration of 20 mg/kg each of ginsenosides Rg1, Rg3, Rb1, which are comparative examples of the present disclosure, and the novel ginsenoside GS #10 of one embodiment of the present disclosure for 6 weeks to the mice, the exercise ability was observed.

Sprague-Dawley (SD) mice = experiment: Treadmill experiment after 6 weeks of oral administration (muscle mitochondrial genes, exercise time, plasma lactate); type: in vivo; conditions: 20 mg/kg orally for 6 weeks; for expression of mitochondrial marker gene in muscle (mitochondrial activity): muscle tissue after treadmill, FIGS. 16-18; for exercise time / exercise ability on treadmill: run until exhausted, FIGS. 19, 25
Procedure: The following experiment was performed to confirm whether the exercise ability improving effect due to the increased mitochondrial production and lipid metabolism promotion of the ginseng seed-derived novel ginsenoside (GS #10) confirmed in Test Example 1 above was also shown at the actual individual level. 20 mg/kg each of the novel ginsenoside GS #10 of one embodiment of the present disclosure and the other ginsenosides GS #01-GS #06 isolated from the existing ginseng seed extract was orally administered to 39-week-old female Sprague-Dawley (SD) mice, and 10 mg/kg each thereof was orally administered to the control group GW/Met for 6 weeks. In order to improve the treadmill adaptability during the six-week experiment, mice were placed on the treadmill every two weeks to familiarize them with the use of the treadmill. After six weeks of administration, mice were placed on a treadmill to run on the treadmill. The exercise time was until the mice were exhausted and pushed down from the treadmill, and the mice which finished the exercise was immediately extracted of muscle tissue and plasma by necropsy. […] The expression patterns of mitochondrial marker genes in muscle are shown in FIGS. 16 to 18, and exercise time and plasma lactate in blood are shown in FIGS. 19 and 20.
as §4, §5

Balb/c mice = experiment: Anti-fatigue efficacy in sleep-deprivation fatigue model (forced swim test, plasma lactate); type: in vivo; conditions: oral, 2 weeks; GS #10 10 and 50 mg/kg, ginseng seed extract 50 mg/kg; 24 hours sleep deprivation; FIGS. 36, 37
Text: In Test Example 2 above, it was confirmed that the novel ginsenoside GS #10 of one embodiment of the present disclosure improved exercise ability and lowered plasma lactate in blood that is increased by exercise. […] Experimental methods are the same as those described in Cho et al., Biol Pharm Bull 33 (7):1128, which is incorporated herein by reference in its entirety. Balb/c mice purchased from Samtako were adapted to the age of 12 weeks and then divided into a fatigue-induced group of 32 mice and a control of 8 mice. The fatigue-induced group was divided into 4 groups again, each of 8 mice, of which is the novel ginsenoside GS #10 10 mg/kg treatment group (F/GS #10 10), 50 mg/kg treatment group (F/GS #10 50), ginseng seed extract 50 mg/kg treatment group (F/GSE #10 50), and untreated group (Fatigue). The ginseng seed extract is a comparative example of the present disclosure, and is a ginseng seed (seeds of Panax ginseng) methanol extract used in the isolation of ginsenoside in Example 1 described above herein. […] Then, while performing the FST (forced swim test) 6 minutes, the time during which the mice of each experiment group floated still on the water without swimming was measured to calculate fatigue. Thereafter, the plasma lactate in blood was measured, and the degree of accumulation of the fatigue substance was observed. […]

SH-SY5Y cells = experiment: Cytotoxicity, Cell Counting Kit (CCK)-8; type: cell-based; conditions: SH-SY5Y cells, 0.1, 1, 5, 10, 20 and 50 μM; FIG. 27
Procedure: The cell growth in the presence of novel ginsenoside GS #10 of one embodiment of the present disclosure was evaluated using Cell Counting Kit (CCK)-8 in order to exclude the possibility that ginsenosides may affect exercise ability enhancing efficacy through cytotoxic activity. The experimental method is as follows.
10 μl of a CCK-8 reagent was added to SH-SY5Y cells in culture (Dojindo, Md., USA) with reference to a 96-well plate and left at 37° C. for 2 hours, and then absorbance was measured at 450 nm. The cell viability was marked as a percentage (%) of the absolute optical density of each sample relative to the untreated sample. At this time, the concentration of the novel ginsenoside GS #10, which is an example of the present disclosure, contained in the medium in which the cells were cultured was 0.1, 1, 5, 10, 20, and 50 μM, respectively.

[2] = system: mouse-derived myocyte lines (C2C12; ATCC); experiment: Fatty acid oxidation in differentiated myocytes; type: cell-based; conditions: 20 pg/ml, 24 hours, FIG. 15
Procedure: as §1, §2
as §3, with “As positive controls, a combination of GW501516 and Metformin (GW/Met; treated at 10 μM each), which are candidates for exercise mimetics and are known to improve exercise ability by activating PPARδ (Peroxisome proliferator-activated receptor delta) and AMPK (AMP-activated protein kinase), respectively, was used.” left out

[3] = system: C2C12 myoblasts induced with chronic inflammation (IL-6); experiment: Cell growth recovery of myoblasts with IL-6-induced chronic inflammation; type: cell-based, mouse; conditions: IL-6 10 ng/ml for 4 weeks, then 10 pg/ml for 48 hours; FIGS. 28, 32
Text: Muscle cells are made from myosatellite cells present inside the muscle. They are usually in a quiescent state, and when muscle damage such as exercise is applied, they wake up and are divided to form myoblasts, and these myoblasts differentiate to form myocytes. These muscle stem cells are known to decrease in number and activity with age. In this process, the inflammatory response, especially IL-6 is involved. Therefore, it was confirmed through the following experiment whether the novel ginsenoside of the embodiment of the present disclosure can restore cell division of muscle stem cells under IL-6-mediated muscle stem cell growth inhibition conditions.
Since muscle stem cells are not available in the form of cell lines, mouse-derived muscle cell lines (C2C12, ATCC) located between muscle stem cells and myoblasts were cultured using Dulbecco's Modified Eagle's Medium (Sigma) containing 10% fetal bovine serum (Hyclone) and 1% penicillin/streptomycin (Sigma). […] Accordingly, in order to induce an inflammatory state due to aging, IL-6 (10 ng/ml) was treated for 4 weeks to induce myoblast aging. […] Myoblasts of this state were treated with the novel ginsenoside GS #10 of one embodiment of the present disclosure and the other ginsenosides GS #01-GS #06 isolated from the existing ginseng seed extract at a concentration of 10 pg/ml each for 48 hours. […]

C2C12 myoblasts = experiment: Myocyte differentiation promotion (mRNA of MyoG, α-actin, myosin); type: cell-based, mouse; conditions: 10 pg/ml during 4 days of differentiation in 2% horse serum; FIGS. 29-31, 33-35
Procedure: As muscles decrease with age, supplementing muscle mass by differentiating myoblasts into myocytes is an essential process for maintaining muscle mass. […] During the differentiation period, the novel ginsenoside GS #10 of one embodiment of the present disclosure and the other ginsenosides GS #01-GS #06 isolated from the existing ginseng seed extract were treated at a concentration of 10 pg/ml, respectively. The control is differentiation medium not treated with ginsenosides. […] After 4 days of differentiation, mRNA was extracted from each treatment group using Trizol™ reagent (Thermo Fisher Scientific), and then cDNA was synthesized using a RevertAid 1st strand cDNA synthesis kit (Thermo Fisher Scientific). The expression levels of myoG, α-actin and myosin, which are muscle fiber marker genes, were observed using a temperature-cycling nucleic acid amplifier (CFX96 thermocycle, Bio-Rad).
The experiment was performed in the same manner as in Test Examples 5 and 6.

Compound	mitochondrial biosynthesis ability / mitochondria production (mitochondrial number; PGC1α, NRF1, tfam expression) ([1]; FIGS. 11-14, 21-24)	mitochondrial biosynthesis ability / mitochondria production (mitochondrial number; PGC1α, NRF1, tfam expression) ([1]; FIGS. 11-14, 21-24, listed as Rb1)	expression of mitochondrial marker gene in muscle (mitochondrial activity) (Sprague-Dawley (SD) mice)	exercise time / exercise ability on treadmill (Sprague-Dawley (SD) mice)	fatigue relief (FST immobility time, plasma lactate) (Balb/c mice)	cytotoxicity (cell viability, % of untreated) (SH-SY5Y cells)	fatty acid oxidation in myocytes [2]	lactic acid concentration (plasma lactate), muscle fatigue marker (Sprague-Dawley (SD) mice; blood after treadmill, FIGS. 20, 26)	cell growth recovery of aged myoblasts (number of cells) [3]	myocyte differentiation marker gene expression (MyoG, α-actin, myosin) (C2C12 myoblasts)
CC(C)=CCC[C@](C)(O[C@@H]1O[C@H](CO[C@@H]2O[C@H](CO)[C@@H](O)[C@H](O)[C@H]2O)[C@@H](O)[C@H](O)[C@H]1O)[C@H]1CC[C@]2(C)[C@@H]1[C@H](O)C[C@@H]1[C@@]3(C)CC[C@H](O[C@@H]4O[C@H](CO)[C@@H](O)[C@H](O)[C@H]4O[C@@H]4O[C@H](CO)[C@@H](O)[C@H](O)[C@H]4O)C(C)(C)[C@@H]3CC[C@]12C [GS #05, ginsenoside Rb1, reference compound]	a slight mitochondria increasing efficacy	did not increase mitochondria production	insignificant	insignificant						
CC(C)=CCC[C@](C)(O[C@@H]1O[C@H](CO[C@@H]2OC[C@H](O)[C@H](O)[C@H]2O)[C@@H](O)[C@H](O)[C@H]1O)[C@H]1CC[C@]2(C)[C@@H]1[C@H](O)C[C@@H]1[C@@]3(C)CC[C@H](O[C@@H]4O[C@H](CO)[C@@H](O)[C@H](O)[C@H]4O[C@@H]4O[C@H](CO)[C@@H](O)[C@H](O)[C@H]4O)C(C)(C)[C@@H]3CC[C@]12C [GS #06, ginsenoside Rb2, reference compound]	a slight mitochondria increasing efficacy		insignificant	insignificant						
C[C@@H]1CC(=O)C(C)(C)C2C1C1C[C@@H](O)C3C([C@]4(C)CC[C@H](C(C)(C)O)O4)CC[C@@]3(C)[C@]1(C)C[C@@H]2O[C@H]1OC(CO)[C@H](O)C(O)C1O[C@H]1OC(CO)[C@H](O)C(O)C1O (stereo partly drawn) [GS #10, (20S,24R)-6-O-β-D-glucopyranosyl(1→2)-β-D-glucopyranoside-dammar-3-one-20,24-epoxy-6a,12b,25-triol]	the most excellent; also recorded: showed mitochondria increasing efficacy		significantly increased	doubled the exercise time; also recorded: significant exercise ability improvement	reduce the symptoms caused by fatigue in a concentration-dependent manner	did not exhibit cytotoxicity up to 50 μM	increased the most	the lowest pattern; also recorded: anti-fatigue effect	a significant effect; also recorded: showed the effects of promoting myoblast growth	a significant increase in marker gene expression; also recorded: myocyte differentiation
CC(C)=CCC[C@](C)(O[C@@H]1O[C@H](CO)[C@@H](O)[C@H](O)[C@H]1O)[C@H]1CC[C@]2(C)[C@@H]1[C@H](O)C[C@@H]1[C@@]3(C)CC[C@H](O)C(C)(C)[C@@H]3[C@@H](O[C@@H]3O[C@H](CO)[C@@H](O)[C@H](O)[C@H]3O)C[C@]12C [Rg1, ginsenoside Rg1]	did not increase mitochondria production									
ginsenoside Rg3	did not increase mitochondria production									

Source: patent US11000538B2, “Composition for enhancing exercise ability or anti-fatigue comprising novel ginsenoside” (priority 2018, dated 2021)
